Experimental data reported in patent publication US11969460B2, “Methods and compositions for treating decreased cognitive ability” (Saint Louis University, priority 2018, dated 2024).
Where “and” joins values, the source holds several entries; their conditions need not be identical. Identical values can stand only once.

Columns and labels:
[1] = tested on: male C57BL/6J (B6) mice, aged 18 months; test: Novel Object Recognition test after exogenous adropin^34-76 treatment; type: in vivo, mouse
Experimental: For the novel object recognition task, mice are habituated to an empty apparatus, a 58×66×11-cm white plastic box, for 5 min a day for 3 consecutive days prior to entry of objects. On the first day of training, mice are placed in the testing apparatus with two identical objects (A and B). 24h later the animal is reintroduced to the arena but this time one of the original objects is removed and a new object (C). Total time spent exploring each of the two objects is recorded. Anxiety will be assessed using open field and elevated plus maze tests. The experimental apparatus consists of a central platform, two open arms and two equal-sized closed arms opposite to each other. The test consisted of placing a mouse in the central platform facing an enclosed arm and allowing it to freely explore the maze for 5 min. The number of entries into the open and closed arms and the time spent in open arms was measure by an observer blind to treatment
(§1) To examine the effects of […] adropin on a subject's cognitive ability, 34 male C57BL/6J (B6) mice, aged 18 months, were treated with exogenous adropin^34-76. Mice were purchased from The Jackson Laboratory (Bar Harbor, ME). After acclimation for 1 month, mice were separated into two weight matched groups of 15 mice: Group 1 adropin^34-76 treatment group and Group 2 saline vehicle control.
(§2) The mice were administered a single intraperitoneal injection (volume 100 μl) each morning (0900h) for 4 weeks. Group 1 was administered adropin^34-76 at a dose of 90 nmol/kg/day. Group 2 was administered saline. The peptide was purchased from Neoscientific Inc. Behavioral testing began after 2 weeks of injections. Injections continued though testing until 4 weeks.
A non-amnesic subject will spend more time exploring the novel object than the familiar one. When adropin treated and vehicle treated mice were subjected to the Novel Object Recognition test, adropin treated mice spent more time exploring the novel object (FIG. 11, Table 1)

[2] = tested on: male C57BL/6J (B6) mice, aged 18 months; test: Aversive T-maze acquisition after exogenous adropin^34-76 treatment; type: in vivo, mouse
Experimental: (§3) Memory retention and acquisition were assessed using an aversive T-maze and novel objective recognition, as previously described (Farr et al., (2016) J Alzheimers Dis.; 54(4):1339-1348). Briefly, the T-maze consists of a black plastic alley with a start box at one end and two goal boxes at the other. An electrifiable floor of stainless steel rods run throughout the maze to deliver a foot-shock using a scrambled grid floor shocker (Model E13-08, Coulbourn Instruments, Whitehall, PA). Mice are not permitted to explore the maze prior to training. A block of training trials begins when mice are placed in the start box. The guillotine door is raised and a cue buzzer sounded simultaneously (doorbell type, at 55 dB); 5s later a mild aversive foot-shock is applied with an intensity of 0.35 mA. The arm of the maze entered on the first trial is designated “incorrect” and the mild foot-shock continued until the mouse enters the other goal box, which in all subsequent trials is designated “correct” for each mouse. Mice are trained until they made one active avoidance, with an inter-trial interval of 30-35s. The number of trials to make one active avoidance is the measure of acquisition. Retention is tested 7d later, with training continued until the criterion of making five active avoidances in six consecutive trials is achieved. The number of trials needed to reach this criterion is the measure of retention(Butler et al., (2012) The Journal of clinical endocrinology and metabolism.; 97(10):3783-3791; Wong et al., (2014) The Journal of biological chemistry.; 289(37):25976-25986).
as §1, §2
Mice prepared with adropin or placebo in Example 3 were subjected to the Acquisition T-maze test.

[3] = tested on: male C57BL/6J (B6) mice, aged 18 months; test: Aversive T-maze retention after exogenous adropin^34-76 treatment; type: in vivo, mouse; design: key to T-maze Retention, Difference between means (Adropin vs. Vehicle): difference in trials to criterion, adropin minus vehicle; key to T-maze Retention: number of trials to reach criterion (5 avoidances in 6 trials)
Experimental: as §3, §1, §2
(FIG. 12, Table 3) Mice were retested in the maze after 7 days and Adropin treated mice retained learned memories and complete the maze in lets time.

[4] = Body weight and deaths during 4-week intraperitoneal treatment; type: in vivo; conditions: group 1, 90 nmol/kg/day intraperitoneal
Experimental: as §1, §2

mice [5] = test: Metabolic effects of administered adropin^34-76 in mice; type: in vivo, mouse
From the text: The inventors have engineered transgenic mice that over express adropin (“AdrTG”) in the nervous system and peripheral tissues. […] In addition, reduced JNK phosphorylation and expression of cytokines indicates reduced neuroinflammatory processes. Inflammation is also increasingly considered an important predisposing risk factor for age-related neurodegeneration (Irwin & Vitiello (2019) Lancet Neurol. 18(3):296-306; Madhavan et a., Nat Rev Cardiol. 15(12):744-756). […] In addition, the inventors have also shown that adropin levels may be increased systemically by […] administration. […] (Kumar et al. 2008; Gao et al. 2014, 2015)
Using mice, the Inventors have shown that administration of adropin^34-76, in doses as low as 90 nmol/kg/day, delivered as two 45 nmol/kg injections, can be effective in producing changes in metabolism. Dose as high as 900 nmol/kg/d are well tolerated in mice. While the doses required for a desired clinical effect in humans is expected to vary between patients, the 90 nmol/kg dose administered by subcutaneous, intramuscular, or intravenous injection, either once or twice a day, may represent a preferred treatment protocol. […] The optimum dose and frequency for a particular subject may be determined by the patient's treating physician, based on the patient's cognitive response. […]

mice [6] = test: Tolerability of adropin^34-76 doses in mice; type: in vivo, mouse
From the text: Using mice, the Inventors have shown that administration of adropin^34-76, in doses as low as 90 nmol/kg/day, delivered as two 45 nmol/kg injections, can be effective in producing changes in metabolism. Dose as high as 900 nmol/kg/d are well tolerated in mice. While the doses required for a desired clinical effect in humans is expected to vary between patients, the 90 nmol/kg dose administered by subcutaneous, intramuscular, or intravenous injection, either once or twice a day, may represent a preferred treatment protocol. It is anticipated that the treatments would be administered daily, although long-acting formulations involving weekly injections are envisaged. The optimum dose and frequency for a particular subject may be determined by the patient's treating physician, based on the patient's cognitive response. It is anticipated that adropin therapy may or may not improve a subject's cognitive function relative to current baseline, however adropin therapy may result in significant delays in the advancement of the disease. Improvement may manifest as a significant delay or a reduced rate of subsequent cognitive decline.

mice [7] = conditions: subjects with diet-induced obesity; Kumar et al. 2008; Gao et al. 2014, 2015; cited from earlier work

Adropin^34-76 (CHSRSADVDSLSESSPNSSPGPCPEKAPPPQKPSHEGSYLLQP; listed as Homo sapiens)
Novel Object Recognition % Novel Object, Difference between means (Adropin vs. Vehicle) ([1]; 95% confidence interval 2.733 to 27.24): 14.99 ± 5.982% | Novel Object Recognition test 24 Hour delay % Novel Object ([1]; individual mice, 90 nmol/kg/day intraperitoneal, 24 hour delay): 55.56% and 77.50% and 66.67% and 79.10% and 51.06% and 100.00% and 51.61% and 46.43% and 42.86% and 53.06% and 37.50% and 40.74% and 64.58% and 62.50% and 58.82% | Novel Object Recognition % Novel Object, Mean ± SEM ([1]; n = 15, 90 nmol/kg/day intraperitoneal, P 0.0183 vs. Vehicle): 58.88 ± 4.106, n = 15% | cognitive performance in Novel Object Recognition test (in words) ([1]; vs vehicle treated mice): improved cognitive performance | T-maze acquisition, Difference between means (Adropin vs. Vehicle) ([2]; 95% confidence interval −4.736 to −2.150): −3.443 ± 0.6301 | T-maze acquisition ([2]; individual mice, number of trials to make one active avoidance, 90 nmol/kg/day intraperitoneal): 7. (5×) and 8. (4×) and 9. (2×) and 6. (3×) | T-maze acquisition, Mean ± SEM ([2]; n = 14, P <0.0001 vs. Vehicle): 7.357 ± 0.2695, | performance in Acquisition T-maze test (in words) ([2]; vs placebo treated mice): improved performance | T-maze Retention, Difference between means (Adropin vs. Vehicle) ([3]; 95% confidence interval −3.121 to −1.565): −2.343 ± 0.3792 | T-maze Retention ([3]; individual mice, retested after 7 days, trials to five active avoidances in six consecutive trials, 90 nmol/kg/day intraperitoneal): 7. (7×) and 8. and 6. (5×) and 9. | T-maze Retention, Mean ± SEM ([3]; n = 14, P <0.0001 vs. Vehicle): 6.857 ± 0.2310, | performance in T-maze retention (in words) ([3]; retested after 7 days): superior performance | deaths during treatment [4]: One mouse in group 1 died | dose known to affect metabolic control (mice [5]; male B6 mice, injection): about 450 nmol/kg | dose effective in producing changes in metabolism (mice [5]; mice, delivered as two 45 nmol/kg injections): ≥ 90 nmol/kg/day | well tolerated dose (mice [6]): ≤ 900 nmol/kg/day | metabolic changes after intraperitoneal injection (in words) (mice [7]): metabolic changes suggesting improvements in glucose control and reduced risk for type 2 diabetes
